Test results published in patent US12293809B2, “Workflow for generating compounds with biological activity against a specific biological target” (INSILICO MEDICINE IP LIMITED, priority 2019, dated 2025).
pIC50: −log10 of the molar value. In brackets after ≈: the same amount, converted by molar mass. Read-outs that look alike come from different tables or passages of the source.

How the values were obtained:
hDDR2 = target: T1, hDDR2 (Homo sapiens, UniProt Q16832); assay: KinaseProfiler radiometric biochemical kinase assay (Eurofins)
T1 construct: purchased Eurofins
T1 sequence (Q16832 22-855): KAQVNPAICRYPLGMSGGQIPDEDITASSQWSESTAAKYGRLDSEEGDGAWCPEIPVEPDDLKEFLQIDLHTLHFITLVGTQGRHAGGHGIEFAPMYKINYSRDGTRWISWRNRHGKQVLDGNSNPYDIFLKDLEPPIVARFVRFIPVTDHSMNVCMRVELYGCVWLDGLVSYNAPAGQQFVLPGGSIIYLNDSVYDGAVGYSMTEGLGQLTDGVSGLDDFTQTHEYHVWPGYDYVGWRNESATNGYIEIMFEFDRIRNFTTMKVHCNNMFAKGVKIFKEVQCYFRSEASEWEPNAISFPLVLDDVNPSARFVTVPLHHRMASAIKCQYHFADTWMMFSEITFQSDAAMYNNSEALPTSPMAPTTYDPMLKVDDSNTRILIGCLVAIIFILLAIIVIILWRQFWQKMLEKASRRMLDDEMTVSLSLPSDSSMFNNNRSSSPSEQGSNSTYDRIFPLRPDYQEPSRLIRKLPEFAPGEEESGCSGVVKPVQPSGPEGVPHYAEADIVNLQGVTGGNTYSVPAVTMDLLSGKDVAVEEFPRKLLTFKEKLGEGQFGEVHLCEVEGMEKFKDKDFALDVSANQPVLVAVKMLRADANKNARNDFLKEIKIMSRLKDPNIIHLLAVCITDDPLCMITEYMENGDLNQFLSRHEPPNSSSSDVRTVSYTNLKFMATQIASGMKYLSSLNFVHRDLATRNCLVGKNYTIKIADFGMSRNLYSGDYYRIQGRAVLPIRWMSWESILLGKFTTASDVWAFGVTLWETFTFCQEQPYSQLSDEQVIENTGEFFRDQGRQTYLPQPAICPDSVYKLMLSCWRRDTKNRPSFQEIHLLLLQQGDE
Method: The experimental procedures were performed by Eurofins. The activity of the molecules against hDDR1 and hDDR2 kinases was assessed using KinaseProfiler^67. […] The enzymatic reaction processed in the presence of Mg^2+ cations and ATP at room temperature for 40 minutes and terminated by addition of phosphoric acid. […] All the compounds were prepared in 100% DMSO. […] The biological evaluation of selectivity against non-target kinases was performed in Dundee Eurofins, using Scan Max Delta Panel [10 μM ATP] KinaseProfiler^68.

hDDR1 = hDDR1 (Homo sapiens, UniProt Q08345); assay: Rescreen in another biochemical assay (Thermo Fisher-PR6913A); settings: read-out: IC50 towards DDR1 kinase, rescreen
hDDR1, sequence (Q08345 19-913): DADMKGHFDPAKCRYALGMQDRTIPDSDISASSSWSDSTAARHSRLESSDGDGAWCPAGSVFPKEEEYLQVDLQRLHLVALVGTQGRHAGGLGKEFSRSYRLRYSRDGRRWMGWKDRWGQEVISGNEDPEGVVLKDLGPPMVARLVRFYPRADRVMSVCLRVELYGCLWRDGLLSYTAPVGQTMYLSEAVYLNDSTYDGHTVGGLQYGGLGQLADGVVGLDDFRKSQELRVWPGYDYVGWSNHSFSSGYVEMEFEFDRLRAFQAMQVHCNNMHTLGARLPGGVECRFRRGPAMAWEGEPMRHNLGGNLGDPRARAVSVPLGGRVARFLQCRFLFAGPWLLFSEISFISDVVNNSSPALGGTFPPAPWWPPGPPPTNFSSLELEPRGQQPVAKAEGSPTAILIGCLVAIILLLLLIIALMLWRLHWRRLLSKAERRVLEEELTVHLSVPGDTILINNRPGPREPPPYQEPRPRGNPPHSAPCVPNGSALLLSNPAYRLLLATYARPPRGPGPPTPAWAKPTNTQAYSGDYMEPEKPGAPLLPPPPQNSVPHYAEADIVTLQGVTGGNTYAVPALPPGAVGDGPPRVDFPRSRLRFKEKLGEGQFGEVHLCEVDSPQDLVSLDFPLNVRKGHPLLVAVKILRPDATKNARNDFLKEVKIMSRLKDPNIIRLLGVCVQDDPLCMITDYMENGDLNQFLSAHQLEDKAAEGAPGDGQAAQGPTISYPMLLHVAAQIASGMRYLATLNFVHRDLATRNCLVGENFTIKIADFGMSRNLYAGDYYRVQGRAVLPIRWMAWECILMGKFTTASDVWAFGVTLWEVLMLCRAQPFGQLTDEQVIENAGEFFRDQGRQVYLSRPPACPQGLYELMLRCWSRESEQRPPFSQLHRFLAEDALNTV
Method: In the present example, six molecules were generated, selected, and synthesized and were submitted for biological testing (e.g., within 35 days). […] Since the dose-response curves for Compounds 2 and 4 seemed likely inconsistent, additional experiments were performed to confirm the activity of these molecules towards DDR1 kinase (see FIG. 4B). […] Compounds 1 and 2 were also evaluated towards DDR2 kinase.
FIGS. 4A-4B show the structures and dose-response curves for the generated molecules. The six generated compounds were tested in a dose-dependent manner against DDR1 tyrosine kinase.

[1] = tested on: α-actin (α-SMA) production in LX-2 cells; assay: LX-2 fibrosis assay, TGF-β stimulated (Western blot); assay type: cell-based, human; settings: 14 nM
Method: Collagen α1, α-SMA, CTGF and GAPDH were traced using Western blot analysis.
After 20 h growth in the reduced serum medium, the cells were treated with indicated doses of compounds for 30 minutes.

LX-2 cells = assay: Cytotoxicity, CellTiter-Glo cell viability assay; assay type: cell-based, human; settings: 72 h
Method: LX-2 cells were seeded into 96 well plates in the presence of a compound and allowed to grow for 72 h before CellTiter-Glo® Luminescent Cell Viability Assay was carried out according the manufacturer's instruction.

Kinetic solubility = assay type: physicochemical; settings: pH=7.4
Method: (§1) Since Compound 2 contains an imidazolidine fragment typically unusual in drug discovery we experimentally assessed key properties for this molecule. […] The inhibition activity of Compounds 1 and 2 towards a small panel of key cytochrome P450 (CYP450) isoforms was also assessed in vitro (Table 2).

log D 7.4 = assay type: physicochemical; settings: TFA salt
Method: as §1

[2] = 10 μM
Method: Test compounds (at 10 μM) were incubated at 25° C. with 50 mM phosphate buffer, pH=7.4 and 8 mM MOPS pH 7.0, 0.2 mM EDTA, pH=7.0. Duplicate samples were used. […] Curcumin was used as positive control in this assay at neutral-basic condition. Samples were analyzed by LC/MS/MS, disappearance of test compound was assessed based on peak area ratios of analyte/IS (no standard curve).

eEF-2K = target: T2, eEF-2K (Homo sapiens, UniProt O00418); assay: scanMAX Delta Kinase Panel (Eurofins), single concentration; assay type: biochemical; settings: 10 μM; highest inhibition within the panel
T2 construct: purchased Eurofins 50-100KP10
Method: The issue of selectivity is of vital importance for a lead compound to estimate possible off-target effects that can influence the pre-clinical evaluation success. […] DDR1 kinase is mostly expressed in epithelial cells, whereas the expression of DDR2 is generally observed in […]. Even though that the prevention of fibrosis is the primary goal, the selectivity over DDR2 kinase is also a very important consideration.
The experimental procedures were performed by Eurofins. The activity of the molecules against hDDR1 and hDDR2 kinases was assessed using KinaseProfiler^67. The enzyme sample was incubated with 8 mM MOPS buffer (pH=7.0), 0.2 mM EDTA, […] target protein hDDR1 and hDDR2 kinases, 10 mM Magnesium acetate/Manganese chloride, respectively, and [γ-^33P]-ATP. The enzymatic reaction processed in the presence of Mg^2+ cations and ATP at room temperature for 40 minutes and terminated by addition of phosphoric acid. The reaction mixture (10 μL) was spotted onto a P30 filtermat and washed four times using 0.425% phosphoric acid and once with methanol. All the compounds were prepared in 100% DMSO. […] The biological evaluation of selectivity against non-target kinases was performed in Dundee Eurofins, using Scan Max Delta Panel [10 μM ATP] KinaseProfiler^68.

## O=C(Nc1cccc(C(=O)N2CCN(c3ccnc4[nH]ccc34)C2)c1)c1cccc(C(F)(F)F)c1 [Compound 2]
hDDR2
  SI (selectivity index) DDR2 vs DDR1: 3.6
hDDR2; read-out: IC50 towards DDR2 kinase
  pIC50: 7.12
hDDR1
  pIC50: 7.43
[1]
  inhibition of α-SMA: 15%
LX-2 cells
  CC50: 7300 nM
Kinetic solubility
  kinetic solubility: 1.09 µg/mL (≈ 2.27 µM)
Log D 7.4
  log D 7.4: 4.07
[2]; 8 mM MOPS pH 7.0, 0.2 mM EDTA, pH 7.0, 0 min
  % Remain: 100.00%
[2]; 8 mM MOPS pH 7.0, 0.2 mM EDTA, pH 7.0, 120 min
  % Remain: 101.41%
[2]; 8 mM MOPS pH 7.0, 0.2 mM EDTA, pH 7.0, 240 min
  % Remain: 103.81%
[2]; 8 mM MOPS pH 7.0, 0.2 mM EDTA, pH 7.0, 360 min
  % Remain: 106.18%
[2]; 8 mM MOPS pH 7.0, 0.2 mM EDTA, pH 7.0, 1440 min
  % Remain: 105.37%
[2]; 50 mM phosphate buffer, pH 7.4, 0 min
  % Remain: 100.00%
[2]; 50 mM phosphate buffer, pH 7.4, 120 min
  % Remain: 100.65%
[2]; 50 mM phosphate buffer, pH 7.4, 240 min
  % Remain: 97.05%
[2]; 50 mM phosphate buffer, pH 7.4, 360 min
  % Remain: 100.07%
[2]; 50 mM phosphate buffer, pH 7.4, 1440 min
  % Remain: 107.23%

## Cc1ccc2c(Nc3cccc(C(F)(F)F)c3)noc2c1C#Cc1cnc2cccnn12 [Compound 1]
hDDR2; DDR2 vs DDR1
  activity towards DDR2 weaker than for DDR1: 23 times
eEF-2K
  INH %: 37%
LX-2 cells
  CC50: 3300 nM
